The numbers were not newly measured in paper PMC9669016, “First-in-human phase Ia study of the PI3Kα inhibitor CYH33 in patients with solid tumors” (Nature Communications, 2022), which cites them from elsewhere.

Several values for one entry are separate records, joined by “and”; a condition that tells them apart may be missing. Identical values can stand only once.

Data set [1] deals with patients with PIK3CA-mutated HR+/HER2– breast cancer / PIK3CA-altered solid tumors. To be noted: cited from earlier work.
The subject of data set [2] is KYSE410, KYSE510, EC104, EC063, EC074 xenograft models. The arrangement: method as in Investigator's Brochure (IB) 12. Conditions: 12.5 mg/kg; 9 values for 5 models, model column not assignable; ref Investigator's Brochure (IB) 12; listed as BYL-719; cited from earlier work.

Regarding `Cc1nc(NC(=O)N2CCC[C@H]2C(N)=O)sc1-c1ccnc(C(C)(C)C(F)(F)F)c1` [alpelisib], in data set [1], the frequency of diarrhea is given as 57.7% and the incidence of rash is 64.0%. In addition, the “improvement in median overall survival” value in data set [1] (phase III SOLAR-1, alpelisib plus fulvestrant vs fulvestrant plus placebo, advanced PIK3CA-mutated HR+/HER2– breast cancer) was 7.9 month. In data set [1] (within the first 4–8 weeks of treatment), the “incidence of rash with prophylactic anti-rash medication” value is 24.6%. For the same compound, the “T/C% (tumor/control ratio)” value in data set [2] is 29.09% and 47.62%.
